Laboratory results: patent publication US20240110004A1 (Northwestern University, priority 2022, published 2024)
Where no end group is shown, it is not given here.

Tests used:
[1] = test system: HdhQ111 cells; assay: Cell viability in HdhQ111 cells after enzyme or serum pretreatment of the compounds; type: cell-based, mouse; conditions: relative to compound without pretreatment, 3 μM with respect to peptide
Procedure: FIG. 10A-10B: Cell viability in HdhQ111 mouse striatal cells after enzyme pretreatment.
Each degradation experiment was repeated three times.
To verify that the PLPs retain bioactivity after being exposed to enzymes or serum treatments, the viability of HD mouse mutant striatal HdhQ111 cells was assessed following treatment with HV3-TAT and P1. […] Cells were maintained at 33° C. and 5% CO2 with a relative humidity of 95%. HdQ111 cells were plated in 96-well plates at a density of 5000 per well and then left to attach for 24 h. Cells were treated with HV3-TAT or PLPs at 3 μM with respect to peptide once a day, for 3 days. The medium was replaced every day. After 72 h, cells were washed 3 times with PBS buffer. At this point, 20 μL of CTB reagent in 80 uL of medium was added, and the cells incubated for 3 hours at 37° C. Fluorescence was measured at 590 nm with excitation at 560 nm using a Perkin Elmer EnSpire plate reader. The average background fluorescence of CTB in media without cells was subtracted from the average fluorescence readings of the experimental wells. Viability was calculated as the average background-subtracted signal in a well compared to that of a negative control well (treatment with vehicle or media). Three replicates were performed for each independent sample. 10% DMSO was used as a positive control and untreated cells in complete medium as a negative control. […]

[2] = test system: R6/2 mice; assay: In vivo efficacy in R6/2 Huntington's disease mice, behavioral analysis, body weight, survival; set-up: species or system mouse; conditions: for open field horizontal activity / open field total distance / open field vertical activity: 13 weeks; for survival: over the saline control; for average percent of body weight gain: week 13
Excerpt: FIG. 31A-31F: For each of FIG. 31A-31F, data is shown reflecting the results of 3 separate studies (i.e., “Batch 1+2+3”) conducted under identical conditions; “veh” refers to the vehicle saline control. For each of FIG. 31A-31C at week 6, WT: n=15; WT+P1: n=15; R62 veh: n=22; R62+HV3-TAT: n=32; and R62+P1: n=16. For each of FIG. 31D-31F at week 6, WT: n=15; WT+P1: n=15; R62 veh: n=17; R62+HV3-TAT: n=30; and R62+P1: n=13. FIG. 31A depicts the average percent of body weight gain for mice subjected to each treatment. From top to bottom, the week 13 data points correspond to: WT+P1 (˜43%); WT (˜39%); R62+P1 (˜1%); R62+HV3-TAT (˜ […]); and R62 (˜-9%). FIG. 31B depicts the survival rate for each treatment group over time. 100% survival rate for WT veh and WT+P1. R62+P1 as compared to R62 veh: p-value=0.0454; R62+HV3-TAT as compared to R62 veh: p-value=0.0201. FIG. 31C depicts the average hindlimb clasping score for each treatment group at weeks 11, 12, and 13. For each week: R62 mice treated with vehicle (left), R62 treated with HV3-TAT (middle), and R62 treated with P1 (right). p-values in week 11: 0.0145 (top—R62 veh as compared to R62+P1), 0.0432 (middle—R62 veh as compared to R62+HV3-TAT), and 0.6051 (bottom—R62+HV3-TAT as compared to R62+P1); week 12: 0.0037 (top—R62 veh as compared to R62+P1), 0.0263 (middle—R62 veh as compared to R62+HV3-TAT), and 0.3957 (bottom—R62+HV3-TAT as compared to R62+P1); week 13: 0.0031 (top—R62 veh as compared to R62+P1), 0.0177 (middle—R62 veh as compared to R62+HV3-TAT), and 0.4938 (bottom—R62+HV3-TAT as compared to R62+P1). FIG. 31D depicts results from the open field tests representing the total distance traveled at final data collection. p-value for: WT veh as compared to R62 veh: <0.0001; WT+P1 as compared to R62 veh: <0.0001; R62 veh as compared to R62+HV3-TAT: 0.0021; R62 veh as compared to R62+P1: <0.0001; R62+HV3-TAT as compared to R62+P1: 0.1486. FIG. 31E depicts results from the horizontal activity tests. p-value for: WT veh as compared to R62 veh: <0.0001; WT+P1 as compared to R62 veh: <0.0001; R62 veh as compared to R62+HV3-TAT: 0.0262; R62 veh as compared to R62+P1: <0.0001; R62+HV3-TAT as compared to R62+P1: 0.0083. FIG. 31F depicts results from the vertical activity tests. P-value for: WT veh as compared to R62 veh: 0.0004; WT+P1 as compared to R62 veh: <0.0001; R62 veh as compared to R62+HV3-TAT: 0.2879; R62 veh as compared to R62+P1: 0.0375; R62+HV3-TAT as compared to R62+P1: 0.6222.
In vivo Efficacy Methods—Behavioral Analysis: All experiments in animals were conducted in accordance with protocols approved by the Institutional Animal Care and Use Committee of Northwestern University and were performed based on the National Institutes of Health Guide for the Care and Use of Laboratory Animals. HV3-TAT at its operating dose, saline (negative control), and P1 at a dose of […] (3 mg/kg/day with respect to peptide) were administered to Huntington's phenotype R6/2 (sometimes referred to herein as R62) mice and WT mice via Alzet osmotic pump from 6 to 13 weeks of age. The accepted HD phenotype is a decrease in motor coordination, general motility and body weight in male mice as they age from 5 to 13 weeks. A key phenotype of R6/2 mice is hindlimb clasping. Accordingly, hindlimb clasping was assessed with the tail suspension test weekly from the ages 7 to 13 weeks in R6/2 mice and WT littermates. Mice were suspended by the tail for 60 sec and the latency for the hindlimbs or all four paws to clasp was recorded using the following score system: clasping over 10 sec, score 3; 5-10 sec, score 2; 0-5 sec, score 1; 0 sec, score 0. The body weight and survival rate of HD mice and WT littermates were also recorded throughout the study period. For open field motor activity, gross locomotor activity was assessed in R6/2 mice and age-matched WT littermates at the ages of 13 weeks. […]

Substance	cell viability after enzyme or serum pretreatment of the compound [1]	open field horizontal activity [2]	open field total distance [2]	open field vertical activity [2]	survival [2]	average percent of body weight gain [2]	hindlimb clasping ([2]; tail suspension test, weekly)
P1: PLP homopolymer having peptide side chains of SEQ ID: 1 (HVLVMSATRR), made by ROMP of norbornene peptide monomer M1 (also: side chains of polynorbornene homopolymer (PLP, ROMP of norbornene peptide monomer))	did not have any significant change in cell viability	improved	improved	improved	significantly extending survival	~1%	
peptide sequence HVLVMCAT (HV3) coupled to the cell penetrating, HIV-derived TAT peptide [HV3-TAT, reference compound]	significant decrease in cell viability	improved	improved	improved	significantly extending survival	~4%	longer clasping time than P1 treated mice
